# Experiments:
# [1] = test system: neuron loss following brain ischemia and reperfusion injury; assay: neuronal density after 5 min bilateral carotid occlusion, compound i.p. 30 min before ischemia (Example 3); format: in vivo, gerbil; details: for Neuronal nuclei/100 micron field: 30 min before ischemia
# Procedure: In the experiments a test compound was administered to groups of six gerbils i.p. as a single dose 30 min before 5 min bilateral carotid occlusion. The density of neuronal nuclei in a 100 micron was measured. Two controls were present--controls which received no test compound and controls which received no test compound and no brain ischemia.
# [2] = test system: neuron loss following brain ischemia and reperfusion injury; assay: neuronal density, post-ischemia treatment, compound i.p. 30 min after reperfusion following 5 min ischemia (Example 4); format: in vivo, gerbil
# [3] = test system: neuronal loss following ischemia; assay: protection from neuronal loss, i.v. 60 min after reperfusion onset following 5 min ischemia (Example 5); format: in vivo, gerbil; details: for protection for neuronal loss (neuronal density): 60 min after reperfusion onset
# [4] = test system: temporal/spatial short term memory following ischemia; assay: 8-arm radial maze test 24 hours after ischemia (Example 6); format: in vivo, gerbil
# Procedure: Brain injury can manifest itself as behavioral changes. In this experiment, young adult (3-4 months of age) gerbils were tested to determine their ability to perform an 8-arm maze test 24 hours following an ischemic event as described in Example 1. As compared to nonischemic animals, when untreated they committed many more errors. PBN and compound I were administered to some of the test animals.
# [5] = test system: infarct volume following middle cerebral occlusion; assay: infarct volume after middle cerebral occlusion (Example 7); format: in vivo, C57BL/6J mice; details: from 60 min after occlusion for 24 hours
# Procedure: The ability of the compound of the invention to reduce infarct volume following an ischemic event was determined.
# [6] = test system: lethality from 10 min ischemia; assay: lethality protection in aged gerbils from 10 min ischemia (Example 8); format: in vivo, gerbil; details: 30 min before ischemia
# [7] = body temperature depression (Example 10); format: in vivo; details: levels as high as 1000 mg/kg, mice and gerbils
# Source text: Another undesirable systemic effect which has been observed in vivo with nitrone radical traps is a depression in body temperature. This toxicity can have serious health consequences and also can complicate diagnosis of other conditions.
# [8] = test system: glutamine synthetase (GS); assay: protection of glutamine synthetase against βAP 25-35 (Example 11); format: biochemical, gerbil; details: co-incubation with 0.4 mg/ml BAP 25-35
# Procedure: (§1) Cytosolic fractions from gerbil neocortex were prepared and enzyme activities determined. Samples were incubated in the presence of different concentrations of the peptide for 10 min prior to assay. Solid symbols represent the effects of the naturally occurring 25-35 fragment. […] Each point is the mean (+/- s.e.) of 5 observations. βAP derived and other cellular sources of free radicals are an important determinant of the initiation and progression of AD.
# (§2) Each point is the mean (+/- s.e.) of 3 observations.
# creatine kinase (CK) [9] = assay: protection of creatine kinase against βAP 25-35 (Example 11); format: biochemical, gerbil; details: co-incubation with 0.4 mg/ml BAP 25-35
# Procedure: as §1, §2
# [10] = test system: infarct volume following middle cerebral artery occlusion; assay: rat focal ischemia model, permanent middle cerebral artery occlusion (Example 12); format: in vivo, Sprague Dawley rats; details: both studies: 100 mg/kg i.p. then 4.2 mg/kg/hr i.v., or 10 mg/kg i.p. then 0.42 mg/kg/hr i.v., up to 24 h; 3 days post stroke
# Source text: A pair of studies were done to determine the efficacy of Compound I in a rat focal ischemia model. In this model, Sprague Dawley rats (200-300 g) underwent a permanent middle cerebral artery occlusion (MCAO) to induce a focal stroke.
# The rats were sacrificed 3 days post stroke, the tissue was processed histologically using triphenyltetrazolium staining techniques, and the infarct volume, the area of total cell necrosis, was quantitated using image analysis.
# [11] = test system: acute lethal effects of adriamycin; assay: adriamycin acute lethality and its prevention by pretreatment, DBA/2J mice (Example 13)
# Procedure: (§3) All injections were intraperitoneal. The acute lethality of adriamycin ranged from 10 to 30 mg/kg.
# [12] = test system: acute lethal effects of adriamycin; assay: adriamycin acute lethality and its prevention by pretreatment, C57BL/6J mice (Example 13); format: in vivo; details: up to 300 mg/kg i.p., without adriamycin
# Source text: (§4) All injections were intraperitoneal.
# [13] = test system: acute lethal effects of adriamycin; assay: comparative tests: nitrone pretreatment combined with adriamycin (Example 13); format: in vivo, mouse; details: doses of Compound I up to 300 mg/kg with adriamycin
# Source text: as §4
# Sprague Dawley rats = assay: acute toxicity in male Sprague Dawley rats (Example 14); format: in vivo, rat; details: 1000 mg/kg i.p., after 3 days
# Procedure: The compounds were administered at 1000 mg/kg, i.p., to groups of 6 rats. After 3 days lethality was assessed.
# solubility in water = format: physicochemical; details: free acid
# [14] = doses demonstrated to be possible; details: up to and higher
# [15] = adriamycin acute lethality and its prevention by pretreatment, DBA/2J mice (Example 13); details: mouse, in vivo, ip
# Procedure: as §3
# [16] = adriamycin acute lethality and its prevention by pretreatment, C57BL/6J mice (Example 13); format: in vivo; details: mouse, in vivo, ip
# Source text: as §4
# [17] = test system: embryonic hippocampal neuronal and neuronal/glial cultures; details: extended period of co-incubation; cited from earlier work
# rat brains = details: infused into rat brains; cited from earlier work
# neuronal cultures = details: Dichlorofluorescein and increased intracellular free calcium Fura-2; cited from earlier work
# [18] = test system: glutamine synthetase (GS); assay: inactivation of glutamine synthetase by βAP fragments in cytosolic fractions of neocortex (Example 11); format: biochemical, gerbil; details: 10 min incubation prior to assay
# Procedure: as §1
# creatine kinase (CK) [19] = assay: inactivation of creatine kinase by βAP fragments in cytosolic fractions of neocortex (Example 11); format: biochemical, gerbil; details: 10 min incubation prior to assay
# Procedure: as §1
# neurotoxicity = details: cited from earlier work
compound,measurement,setting,value
"CC(C)(C)[N+]([O-])=Cc1ccccc1S(=O)(=O)O [Compound 2-sulfo, N-tert-butyl-α-(2-sulfophenyl) nitrone]",Neuronal nuclei/100 micron field,[1]; 3.2 mg/kg i.p.,0.73 Neuronal nuclei/100 micron field
same,Neuronal nuclei/100 micron field,[1]; 10 mg/kg i.p.,0.68 Neuronal nuclei/100 micron field
same,Neuronal nuclei/100 micron field,[1]; 32 mg/kg i.p.,0.73 Neuronal nuclei/100 micron field
same,Neuronal nuclei/100 micron field,[1]; 50 mg/kg i.p.,1.01 Neuronal nuclei/100 micron field
same,Neuronal nuclei/100 micron field,[1]; 100 mg/kg i.p.,0.93 Neuronal nuclei/100 micron field
same,Neuronal nuclei/100 micron field,[1]; 320 mg/kg i.p.,1.11 Neuronal nuclei/100 micron field
same,Neuronal nuclei/100 micron field,[1]; 1000 mg/kg i.p.,0.98 Neuronal nuclei/100 micron field
same,Neuronal nuclei/100 micron field,[2]; 50 mg/kg i.p.,0.68 Neuronal nuclei/100 micron field
same,Neuronal nuclei/100 micron field,[2]; 100 mg/kg i.p.,0.78 Neuronal nuclei/100 micron field
same,Neuronal nuclei/100 micron field,[2]; 320 mg/kg i.p.,0.81 Neuronal nuclei/100 micron field
CC(C)(C)[N+]([O-])=Cc1cccc(S(=O)(=O)O)c1 [Compound 3-sulfo],Neuronal nuclei/100 micron field,[1]; 3.2 mg/kg i.p.,0.35 Neuronal nuclei/100 micron field
same,Neuronal nuclei/100 micron field,[1]; 10 mg/kg i.p.,0.81 Neuronal nuclei/100 micron field
same,Neuronal nuclei/100 micron field,[1]; 32 mg/kg i.p.,1.63 Neuronal nuclei/100 micron field
same,Neuronal nuclei/100 micron field,[1]; 50 mg/kg i.p.,1.63 Neuronal nuclei/100 micron field
same,Neuronal nuclei/100 micron field,[1]; 100 mg/kg i.p.,1.93 Neuronal nuclei/100 micron field
same,Neuronal nuclei/100 micron field,[1]; 320 mg/kg i.p.,1.78 Neuronal nuclei/100 micron field
same,Neuronal nuclei/100 micron field,[1]; 1000 mg/kg i.p.,1.58 Neuronal nuclei/100 micron field
same,Neuronal nuclei/100 micron field,[2]; 50 mg/kg i.p.,0.73 Neuronal nuclei/100 micron field
same,Neuronal nuclei/100 micron field,[2]; 100 mg/kg i.p.,1.09 Neuronal nuclei/100 micron field
same,Neuronal nuclei/100 micron field,[2]; 320 mg/kg i.p.,0.93 Neuronal nuclei/100 micron field
CC(C)(C)[N+]([O-])=Cc1ccc(S(=O)(=O)O)cc1S(=O)(=O)O [Compound I],Neuronal nuclei/100 micron field,[1]; 3.2 mg/kg i.p.,1.43 Neuronal nuclei/100 micron field
same,Neuronal nuclei/100 micron field,[1]; 10 mg/kg i.p.,2.57 Neuronal nuclei/100 micron field
same,Neuronal nuclei/100 micron field,[1]; 32 mg/kg i.p.,3.53 Neuronal nuclei/100 micron field
same,Neuronal nuclei/100 micron field,[1]; 50 mg/kg i.p.,4.11 Neuronal nuclei/100 micron field
same,Neuronal nuclei/100 micron field,[1]; 100 mg/kg i.p.,4.18 Neuronal nuclei/100 micron field
same,Neuronal nuclei/100 micron field,[1]; 320 mg/kg i.p.,4.23 Neuronal nuclei/100 micron field
same,Neuronal nuclei/100 micron field,[1]; 1000 mg/kg i.p.,4.11 Neuronal nuclei/100 micron field
same,Neuronal nuclei/100 micron field,[1]; 3200 mg/kg i.p.,4.18 Neuronal nuclei/100 micron field
same,protection against neuronal loss,[1]; high dose levels,complete protection against neuronal loss
same,Neuronal nuclei/100 micron field,[2]; 32 mg/kg i.p.,1.83 Neuronal nuclei/100 micron field
same,Neuronal nuclei/100 micron field,[2]; 50 mg/kg i.p.,2.73 Neuronal nuclei/100 micron field
same,Neuronal nuclei/100 micron field,[2]; 100 mg/kg i.p.,3.41 Neuronal nuclei/100 micron field
same,Neuronal nuclei/100 micron field,[2]; 320 mg/kg i.p.,3.55 Neuronal nuclei/100 micron field
same,Neuronal nuclei/100 micron field,[2]; 1000 mg/kg i.p.,3.68 Neuronal nuclei/100 micron field
same,protection for neuronal loss (neuronal density),[3]; 0.5 mg/kg single dose i.v.,1.25
same,protection for neuronal loss (neuronal density),[3]; 1.0 mg/kg single dose i.v.,1.75
same,protection for neuronal loss (neuronal density),[3]; 10 mg/kg single dose i.v.,2.43
same,effect on neuronal density in control gerbils,[3]; control gerbils without brain injury,Neither PBN nor Compound I. had an effect on neuronal density
same,errors in 8-arm radial maze,[4]; 1.0 mg/kg/hr for 24 hours,14.63 errors
same,errors in 8-arm radial maze,[4]; 32 mg/kg/hr for 24 hours,7.19 errors
same,errors in 8-arm radial maze,[4]; 50 mg/kg/hr for 24 hours,4.28 errors
same,errors in 8-arm radial maze,[4]; 100 mg/kg/hr for 24 hours,4.11 errors
same,error levels,[4]; high doses,error levels indistinguishable from those of nonischemic animals
same,Infarct Volume,[5]; 1.0 mg/kg/hr i.v.,16.8 mm^3
same,Infarct Volume,[5]; 10 mg/kg/hr i.v.,12.7 mm^3
same,Infarct Volume,[5]; 100 mg/kg/hr i.v.,8.3 mm^3
same,lethality protection (% survived),[6]; 10 mg/kg,50%
same,lethality protection (% survived),[6]; 32 mg/kg,75%
same,lethality protection (% survived),[6]; 100 mg/kg,100%
same,lethality protection (% survived),[6]; 320 mg/kg,100%
same,lethality protection,[6]; Compound I: at high levels,complete protection
same,temperature decrease,[7],no measurable temperature decrease
same,protection of GS against the effects of βAP fragments,[8],complete protection
same,protection of CK against the effects of βAP fragments,creatine kinase (CK) [9],complete protection
same,protection (infarct volume),[10],approximately 70%
same,maximally tolerated dose of adriamycin in combination,[11]; combination with adriamycin,marked increase in the maximally tolerated dose
same,effect on survival,"[11]; up to 300 mg/kg i.p., without adriamycin, DBA/2J",no effect on survival
same,effect on survival,[12],no effect on survival
same,combined toxicity,[13],did not produce any combined toxicity
same,lethality,Sprague Dawley rats,no lethality
same,solubility,solubility in water,> 1000 mg/mL
same,dose demonstrated to be possible,[14],≥ 1000 mg/kg/h
COc1cccc2c1C(=O)c1c(O)c3c(c(O)c1C2=O)C[C@@](O)(C(=O)CO)C[C@@H]3O[C@H]1C[C@H](N)[C@H](O)[C@H](C)O1 [adriamycin],LD50,[15],25 mg/kg
same,LD50,[16],25 mg/kg
βAP 1-40: beta amyloid peptide 1-40,cytotoxicity,[17],produces cytotoxicity
same,lesions in rat brains,rat brains,lesions are produced
same,oxidative stress,neuronal cultures,results in oxidative stress
"βAP (25-35): proposed breakdown fragment of βAP; naturally occurring 25-35 fragment (GSNKGAIIGLM; Amyloid-beta protein 42; UniProt P05067 696-706, looked up, fragment)",inactivation of glutamine synthetase,[18],dose-related inactivation
same,inactivation of creatine kinase,creatine kinase (CK) [19],dose-related inactivation
same,neurotoxicity,neurotoxicity,neurotoxic

# — US5475032A, “2,4-disulfonyl phenyl butyl nitrone, its salts, and their use as pharmaceuticals” (Oklahoma Medical Research Foundation, priority 1995, dated 1995)
